Results: patent US10358409B2, “Low-toxicity olefinic ester compositions and methods of using the same” (Elevance Renewable Sciences, Inc., priority 2014, dated 2019)

Tested on: leptocheirus plumolosus
Assay: Aquatic toxicity, EPA Test No. 1644, percent survival after 10 days of exposure
Type: in vivo
Method: The aquatic toxicity of three cyclohexyl esters were tested against three comparative compounds. Aqueous samples of the following solvents were prepared at concentrations of 3200 mg/kg: xylene (Sample 2A); methyl 9-dodecenoate (Sample 2B); methyl esters of a mixture of C13-15 olefinic acids (Sample 2C); cyclohexyl 9-decenoate (Sample 2D); cyclohexyl 9-dodecenoate (Sample 2E); and cyclohexyl esters of a mixture of C13-15 olefinic acids. Using United States Environmental Protection Agency (EPA) Test No. 1644, the toxicity of the aqueous compositions was measured as the percent survival of leptocheirus plumolosus after 10 days of exposure. Table 1 recites the survival rates for each of the above compositions.

[1] = Leptocheirus plumolosus, in vivo, 3200 mg/kg, 10 days

Compound: CCC=CCCCCCCCC(=O)OC [Sample 2B, methyl 9-dodecenoate]
- Survival Rate (%) [1]: 47%

Compound: C=CCCCCCCCC(=O)OC1CCCCC1 [Sample 2D, cyclohexyl 9-decenoate]
- Survival Rate (%) [1]: 57%

Compound: CCC=CCCCCCCCC(=O)OC1CCCCC1 [Sample 2E, cyclohexyl 9-dodecenoate]
- Survival Rate (%) [1]: 89%

Compound: xylene [Sample 2A]
- Survival Rate (%) (aqueous samples of the solvent at 3200 mg/kg, percent survival of leptocheirus plumolosus after 10 days of exposure): 69%
